# Results published in ChEMBL document CHEMBL5149994, “Anticancer potential of indirubins in medicinal chemistry: Biological activity, structural modification, and structure-activity relationship” (Eur J Med Chem, 2021).
# Key:
# MCF7 [1] = assay: Antiproliferative activity against human MCF7 cells assessed as cell growth inhibition at 10 uM by crystal violet staining based assay relative to control; assay type: functional; design: scale not given: the % may be the effect or the level left
# [2] = Antitumor activity against mouse 4T1-Luc cells xenografted in BALB/c mouse assessed as decrease in lung metastasis at 1 mg/kg, iv measured after 8 days […]; assay type: functional; design: scale not given: the % may be the effect or the level left; conditions: time 8 day
# A2058 = assay: Antitumor activity against human A2058 cells xenografted in BALB/c mouse assessed as reduction in tumour volume at 50 mg/kg per day, po administered via oral gavage treated every other day for 14 days relative to control; assay type: functional; design: scale not given: the % may be the effect or the level left; conditions: time 14 day
# [3] = molecular target: Tyrosine-protein kinase JAK1 (Homo sapiens, UniProt P23458); assay: Inhibition of recombinant JAK1 (unknown origin)
# [4] = molecular target: T1, Tyrosine-protein kinase JAK2 (Homo sapiens, UniProt O60674); assay: Inhibition of recombinant JAK2 (unknown origin)
# [5] = molecular target: Non-receptor tyrosine-protein kinase TYK2 (Homo sapiens, UniProt P29597); assay: Inhibition of recombinant Tyk2 (unknown origin)
# [6] = molecular target: Proto-oncogene tyrosine-protein kinase Src (Homo sapiens, UniProt P12931); assay: Inhibition of recombinant c-Src (unknown origin)
# [7] = molecular target: Tyrosine-protein kinase Lyn (Homo sapiens, UniProt P07948); assay: Inhibition of recombinant Lyn (unknown origin)
# [8] = molecular target: Tyrosine-protein kinase HCK (Homo sapiens, UniProt P08631); assay: Inhibition of recombinant Hck (unknown origin)
# PANC-1 = assay: Antiproliferative activity against human PANC-1 cells assessed as cell growth inhibition measured after 42 hrs by MTS assay; assay type: functional, cell-based; conditions: PANC-1, 42 h
# MIA PaCa-2 = assay: Antiproliferative activity against human MIA PaCa-2 cells assessed as cell growth inhibition measured after 42 hrs by MTS assay; assay type: functional, cell-based; conditions: MIA PaCa-2, 42 h
# BXPC-3 = assay: Antiproliferative activity against human BXPC-3 cells assessed as cell growth inhibition measured after 42 hrs by MTS assay; assay type: functional, cell-based; conditions: BXPC-3, 42 h
# Aurora kinase A = Aurora kinase A (Homo sapiens, UniProt O14965); assay: Inhibition of Aurora A (unknown origin)
# Aurora kinase B = Aurora kinase B (Homo sapiens, UniProt Q96GD4); assay: Inhibition of Aurora B (unknown origin)
# Aurora kinase C = Aurora kinase C (Homo sapiens, UniProt Q9UQB9); assay: Inhibition of Aurora C (unknown origin)
# [9] = Inhibition of starfish oocyte CDK1/Cyclin B using histone H1 as substrate incubated for 10 mins in presence of [gamma-32P]ATP by scintillation counter analysis; design: species or system Marthasterias glacialis
# MCF7 [10] = assay: Cytotoxicity against human MCF7 cells assessed as cell growth inhibition by MTT assay; assay type: functional, cell-based
# LoVo = assay: Cytotoxicity against human LoVo cells assessed as cell growth inhibition by MTT assay; assay type: functional, cell-based
# LNCaP = assay: Cytotoxicity against human LNCaP cells assessed as cell growth inhibition by MTT assay; assay type: functional, cell-based
# [11] = molecular target: Cyclin-dependent kinase 5/CDK5 activator 1 (Homo sapiens, UniProt Q00535); assay: Inhibition of GST-fused CDK5/p25 (unknown origin); assay type: protein-complex assay
# [12] = molecular target: Glycogen synthase kinase-3 (Sus scrofa, UniProt B2LUN4+I6LNT8); assay: Inhibition of porcine brain GSK-3alpha/beta incubated for 30 mins in presence of [33p]-gamma ATP by scintillation counter analysis
# K562 [13] = assay: Antiproliferative activity against human K562 cells assessed as cell growth inhibition measured after 72 hrs by MTT assay; assay type: functional, cell-based; conditions: K562, 72 h
# OCI-AML2 [14] = assay: Antiproliferative activity against human OCI-AML2 cells assessed as cell growth inhibition measured after 72 hrs by MTT assay; assay type: functional, cell-based; conditions: OCI-AML2, 72 h
# K562 [15] = assay: Antiproliferative activity against imatinib treated human K562 cells assessed as cell growth inhibition measured after 72 hrs by MTT assay; assay type: functional, cell-based; conditions: K562, 72 h
# OCI-AML2 [16] = assay: Antiproliferative activity against imatinib and Ara-C resistant human OCI-AML2 cells assessed as cell growth inhibition measured after 72 hrs by MTT assay; assay type: functional, cell-based; conditions: OCI-AML2, 72 h
# HT-29 = assay: Antiproliferative activity against human HT-29 cells assessed as cell growth inhibition measured after 72 hrs by tetrazolium staining based assay; assay type: functional; conditions: HT-29, 72 h
# [17] = molecular target: Hepatocyte growth factor receptor (Homo sapiens, UniProt P08581); assay: Inhibition of c-met (unknown origin) by TR-FRET assay
# [18] = molecular target: ALK tyrosine kinase receptor (Homo sapiens, UniProt Q9UM73); assay: Inhibition of ALK (unknown origin) by TR-FRET assay
# [19] = molecular target: T1, Tyrosine-protein kinase JAK2; assay: Inhibition of JAK2 (unknown origin) by TR-FRET assay
# CDK2/Cyclin A2 [20] = molecular target: T2, CDK2/Cyclin A2 (Homo sapiens, UniProt P24941); assay: Inhibition of CDK2/cyclin A (unknown origin); assay type: protein-complex assay
# [21] = Inhibition of CDK2/cyclin E (unknown origin); design: species or system Homo sapiens
# [22] = molecular target: Cyclin-dependent kinase 4/cyclin D1 (Homo sapiens, UniProt P11802); assay: Inhibition of CDK4/cyclin D1 (unknown origin); assay type: protein-complex assay
# LXFL 529 = assay: Cytotoxicity against human LXFL 529 cells assessed as cell growth inhibition measured after 3 days by SRB assay; assay type: functional, cell-based; conditions: LXFL 529, 72 h
# MCF7 [23] = assay: Cytotoxicity against human MCF7 cells assessed as cell growth inhibition measured after 3 days by SRB assay; assay type: functional, cell-based; conditions: MCF7, 72 h
# CDK2/Cyclin A2 [24] = molecular target: T2, CDK2/Cyclin A2; assay: Inhibition of GST-fused human CDK2/cyclin A expressed in Escherichia coli using histone H1 as substrate in presence of [33p]-gamma ATP and MgATP
# [25] = molecular target: Tyrosine-protein kinase Lck (Homo sapiens, UniProt P06239); assay: Inhibition of LCK (unknown origin) in presence of ATP
# [26] = molecular target: Serine/threonine-protein kinase Sgk1 (Homo sapiens, UniProt O00141); assay: Inhibition of SGK (unknown origin) in presence of ATP
# [27] = Antiproliferative activity against human NOZ cells assessed as cell growth inhibition measured upto 72 hrs by CCK-8 assay; assay type: functional, cell-based
# HuCCT-1 = assay: Antiproliferative activity against human HuCCT-1 cells assessed as cell growth inhibition measured upto 72 hrs by CCK-8 assay; assay type: functional, cell-based; conditions: HuCCT-1, 72 h
# [28] = Antiproliferative activity against human OZ [Human cholangiocarcinoma] cells assessed as cell growth inhibition measured upto 72 hrs by CCK-8 assay; assay type: functional, cell-based
# [29] = molecular target: T3, Receptor-type tyrosine-protein kinase FLT3 (Homo sapiens, UniProt P36888); assay: Inhibition of recombinant FLT3 (unknown origin) in presence of ATP by HTRF assay
# T3 sequence (P36888 whole entry): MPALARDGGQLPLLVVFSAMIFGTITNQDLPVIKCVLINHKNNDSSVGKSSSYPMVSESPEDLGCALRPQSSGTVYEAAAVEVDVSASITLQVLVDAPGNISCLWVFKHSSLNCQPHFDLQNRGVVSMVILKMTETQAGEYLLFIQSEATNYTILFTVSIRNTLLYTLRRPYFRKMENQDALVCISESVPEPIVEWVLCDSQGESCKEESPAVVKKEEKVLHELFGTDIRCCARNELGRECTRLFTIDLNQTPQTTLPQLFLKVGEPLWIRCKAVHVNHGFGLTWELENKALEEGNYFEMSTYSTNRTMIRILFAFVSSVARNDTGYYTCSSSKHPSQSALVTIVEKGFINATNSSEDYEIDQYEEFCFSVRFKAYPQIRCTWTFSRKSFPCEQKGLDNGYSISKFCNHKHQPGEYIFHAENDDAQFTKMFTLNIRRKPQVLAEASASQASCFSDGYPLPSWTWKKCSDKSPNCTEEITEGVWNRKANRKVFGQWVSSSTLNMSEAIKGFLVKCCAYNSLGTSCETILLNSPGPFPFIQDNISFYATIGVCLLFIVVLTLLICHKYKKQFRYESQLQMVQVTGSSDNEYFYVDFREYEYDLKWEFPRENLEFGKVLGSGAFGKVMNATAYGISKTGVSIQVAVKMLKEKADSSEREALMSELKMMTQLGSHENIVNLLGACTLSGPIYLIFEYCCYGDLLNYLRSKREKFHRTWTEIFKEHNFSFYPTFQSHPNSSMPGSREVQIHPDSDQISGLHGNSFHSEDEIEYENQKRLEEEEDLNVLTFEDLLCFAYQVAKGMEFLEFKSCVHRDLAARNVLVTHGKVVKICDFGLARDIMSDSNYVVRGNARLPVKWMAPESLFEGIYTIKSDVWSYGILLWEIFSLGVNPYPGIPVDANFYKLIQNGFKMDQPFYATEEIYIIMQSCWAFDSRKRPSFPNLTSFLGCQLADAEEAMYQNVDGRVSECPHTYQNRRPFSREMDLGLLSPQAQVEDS
# [30] = molecular target: Receptor-type tyrosine-protein kinase FLT3 (Homo sapiens, UniProt P36888, D835Y); assay: Inhibition of recombinant FLT3 D835Y mutant (unknown origin) in presence of ATP by HTRF assay
# MV4-11 = assay: Antiproliferative activity against human MV4-11 cells assessed as cell growth inhibition measured after 72 hrs by tetrazolium staining based WST-8 assay; assay type: functional; conditions: MV4-11, 72 h
# HL-60 = assay: Antiproliferative activity against human HL-60 cells assessed as cell growth inhibition measured after 3 days by trypan blue staining based inverted microscope method; assay type: functional; conditions: HL-60, 72 h, time 3 day
# Danio rerio = species: Danio rerio; assay: Antiangiogenic activity in transgenic zebrafish embryo assessed as inhibition of angiogenic vessel growth incubated for 24 hrs by FITC staining based analysis; assay type: functional, organism-based
# HUVEC = assay: Antiproliferative activity against HUVEC cells assessed as cell growth inhibition measured after 3 days by [3H]-thymidine incorporation assay; assay type: functional, cell-based; conditions: Homo sapiens
# [31] = molecular target: T3, Receptor-type tyrosine-protein kinase FLT3; assay: Inhibition of FLT3 (unknown origin)
# [32] = molecular target: Fibroblast growth factor receptor 1 (Homo sapiens, UniProt P11362); assay: Inhibition of FGFR1 (unknown origin)
# [33] = Inhibition of VEGFR (unknown origin); design: species or system Homo sapiens
# A549 [34] = assay: Antitumor activity against human A549 cells xenografted in CD1 mouse assessed as reduction in tumour volume at 6 mg/kg, sc treated 3 times a week for 25 days in presence of thymoquinone relative to control; assay type: functional; design: scale not given: the % may be the effect or the level left; conditions: time 25 day
# A549 [35] = assay: Antitumor activity against human A549 cells xenografted in CD1 mouse assessed as reduction in tumour weight at 6 mg/kg, sc treated 3 times a week for 25 days in presence of thymoquinone relative to control; assay type: functional; design: scale not given: the % may be the effect or the level left; conditions: time 25 day
# IMR-32 = assay: Antiproliferative activity against human IMR-32 cells assessed as cell growth inhibition; assay type: functional, cell-based
# SK-N-SH = assay: Antiproliferative activity against human SK-N-SH cells assessed as cell growth inhibition; assay type: functional, cell-based
# T1 sequence (O60674 whole entry): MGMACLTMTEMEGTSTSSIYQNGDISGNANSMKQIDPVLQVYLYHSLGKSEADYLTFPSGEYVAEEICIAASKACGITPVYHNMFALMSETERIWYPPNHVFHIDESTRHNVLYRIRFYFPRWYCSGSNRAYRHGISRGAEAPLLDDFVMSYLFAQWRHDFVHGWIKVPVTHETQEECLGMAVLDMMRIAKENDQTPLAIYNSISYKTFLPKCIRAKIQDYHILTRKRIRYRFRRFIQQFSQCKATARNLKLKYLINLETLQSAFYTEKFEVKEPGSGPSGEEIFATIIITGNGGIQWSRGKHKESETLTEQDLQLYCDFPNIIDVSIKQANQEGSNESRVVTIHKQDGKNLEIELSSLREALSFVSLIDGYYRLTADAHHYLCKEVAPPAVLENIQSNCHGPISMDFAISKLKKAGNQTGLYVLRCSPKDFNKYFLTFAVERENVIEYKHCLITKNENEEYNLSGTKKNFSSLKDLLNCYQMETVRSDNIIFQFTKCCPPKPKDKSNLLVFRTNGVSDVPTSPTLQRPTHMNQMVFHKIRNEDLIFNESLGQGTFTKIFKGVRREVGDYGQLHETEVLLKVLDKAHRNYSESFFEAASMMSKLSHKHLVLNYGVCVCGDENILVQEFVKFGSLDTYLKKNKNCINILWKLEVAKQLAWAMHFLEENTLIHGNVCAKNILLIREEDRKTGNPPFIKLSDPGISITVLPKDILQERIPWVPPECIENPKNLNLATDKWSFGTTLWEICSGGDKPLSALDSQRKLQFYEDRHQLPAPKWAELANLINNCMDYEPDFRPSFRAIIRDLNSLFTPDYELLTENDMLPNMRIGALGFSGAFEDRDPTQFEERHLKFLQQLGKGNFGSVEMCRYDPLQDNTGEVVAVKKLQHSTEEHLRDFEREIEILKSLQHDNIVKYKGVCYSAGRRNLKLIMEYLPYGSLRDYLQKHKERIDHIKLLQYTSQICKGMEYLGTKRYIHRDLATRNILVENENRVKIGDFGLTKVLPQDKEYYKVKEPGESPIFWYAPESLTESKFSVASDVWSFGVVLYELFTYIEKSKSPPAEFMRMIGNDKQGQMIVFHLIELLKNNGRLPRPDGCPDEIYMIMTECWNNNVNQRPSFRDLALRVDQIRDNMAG
# Aurora kinase A, sequence (O14965 whole entry): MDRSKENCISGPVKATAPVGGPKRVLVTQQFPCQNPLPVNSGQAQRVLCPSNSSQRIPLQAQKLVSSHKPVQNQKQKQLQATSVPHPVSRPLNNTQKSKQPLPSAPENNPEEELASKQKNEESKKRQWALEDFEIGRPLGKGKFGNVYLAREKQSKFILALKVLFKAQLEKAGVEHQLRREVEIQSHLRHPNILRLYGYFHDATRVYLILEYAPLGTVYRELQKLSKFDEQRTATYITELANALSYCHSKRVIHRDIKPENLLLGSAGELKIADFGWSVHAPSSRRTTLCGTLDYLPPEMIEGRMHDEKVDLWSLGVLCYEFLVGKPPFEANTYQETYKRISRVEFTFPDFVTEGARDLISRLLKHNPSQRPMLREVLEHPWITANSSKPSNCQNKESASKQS
# Tyrosine-protein kinase Lck, sequence (P06239 whole entry): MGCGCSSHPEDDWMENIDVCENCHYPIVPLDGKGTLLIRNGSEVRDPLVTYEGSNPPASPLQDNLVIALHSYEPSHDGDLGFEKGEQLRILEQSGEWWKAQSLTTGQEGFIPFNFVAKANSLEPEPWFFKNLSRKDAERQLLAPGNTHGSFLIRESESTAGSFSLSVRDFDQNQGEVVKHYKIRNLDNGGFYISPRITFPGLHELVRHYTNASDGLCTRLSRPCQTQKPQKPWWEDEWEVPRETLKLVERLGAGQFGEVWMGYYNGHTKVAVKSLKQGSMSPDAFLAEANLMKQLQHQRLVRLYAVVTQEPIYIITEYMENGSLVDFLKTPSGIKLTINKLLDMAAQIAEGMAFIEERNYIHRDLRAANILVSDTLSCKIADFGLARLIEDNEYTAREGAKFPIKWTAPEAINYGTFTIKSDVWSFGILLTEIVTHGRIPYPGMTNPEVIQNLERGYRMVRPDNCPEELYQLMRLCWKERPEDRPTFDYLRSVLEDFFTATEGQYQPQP
# Tyrosine-protein kinase JAK1, sequence (P23458 whole entry): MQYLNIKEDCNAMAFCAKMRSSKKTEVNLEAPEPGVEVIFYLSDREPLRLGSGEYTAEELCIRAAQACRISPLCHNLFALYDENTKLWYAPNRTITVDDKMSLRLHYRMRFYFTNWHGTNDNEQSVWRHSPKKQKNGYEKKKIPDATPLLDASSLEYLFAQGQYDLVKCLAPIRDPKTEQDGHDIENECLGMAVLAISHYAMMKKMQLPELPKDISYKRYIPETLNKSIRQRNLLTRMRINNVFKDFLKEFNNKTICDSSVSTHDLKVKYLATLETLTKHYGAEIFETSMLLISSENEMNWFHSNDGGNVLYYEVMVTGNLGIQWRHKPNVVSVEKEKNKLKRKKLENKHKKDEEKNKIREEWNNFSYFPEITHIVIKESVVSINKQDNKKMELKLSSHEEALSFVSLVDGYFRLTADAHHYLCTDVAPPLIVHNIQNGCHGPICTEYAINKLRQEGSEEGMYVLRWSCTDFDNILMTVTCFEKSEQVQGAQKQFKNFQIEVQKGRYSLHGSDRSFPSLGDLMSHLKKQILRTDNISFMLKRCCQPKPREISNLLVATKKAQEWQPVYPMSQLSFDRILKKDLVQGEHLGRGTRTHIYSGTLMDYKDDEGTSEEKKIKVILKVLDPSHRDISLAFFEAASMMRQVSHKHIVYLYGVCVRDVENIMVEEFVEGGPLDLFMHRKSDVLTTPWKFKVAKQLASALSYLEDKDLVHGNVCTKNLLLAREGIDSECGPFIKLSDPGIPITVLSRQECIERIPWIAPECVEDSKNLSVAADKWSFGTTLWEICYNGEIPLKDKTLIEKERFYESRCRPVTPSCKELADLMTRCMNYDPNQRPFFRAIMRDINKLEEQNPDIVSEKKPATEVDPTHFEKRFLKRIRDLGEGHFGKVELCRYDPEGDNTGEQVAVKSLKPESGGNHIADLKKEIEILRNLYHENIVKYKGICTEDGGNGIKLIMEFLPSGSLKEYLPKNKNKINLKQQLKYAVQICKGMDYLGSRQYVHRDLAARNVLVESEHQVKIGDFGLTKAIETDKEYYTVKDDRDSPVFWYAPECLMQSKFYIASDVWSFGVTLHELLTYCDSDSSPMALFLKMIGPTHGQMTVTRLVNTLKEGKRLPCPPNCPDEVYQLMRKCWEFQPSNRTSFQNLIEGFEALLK
# Aurora kinase B, sequence (Q96GD4 whole entry): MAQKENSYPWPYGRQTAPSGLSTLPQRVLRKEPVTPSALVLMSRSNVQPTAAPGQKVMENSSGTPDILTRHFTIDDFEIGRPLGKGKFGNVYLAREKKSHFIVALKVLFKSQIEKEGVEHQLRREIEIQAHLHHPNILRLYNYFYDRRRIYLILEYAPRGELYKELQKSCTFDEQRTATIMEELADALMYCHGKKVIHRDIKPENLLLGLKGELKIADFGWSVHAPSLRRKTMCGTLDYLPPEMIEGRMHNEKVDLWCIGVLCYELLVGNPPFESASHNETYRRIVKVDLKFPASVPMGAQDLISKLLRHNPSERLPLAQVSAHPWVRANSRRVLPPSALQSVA
# Aurora kinase C, sequence (Q9UQB9 whole entry): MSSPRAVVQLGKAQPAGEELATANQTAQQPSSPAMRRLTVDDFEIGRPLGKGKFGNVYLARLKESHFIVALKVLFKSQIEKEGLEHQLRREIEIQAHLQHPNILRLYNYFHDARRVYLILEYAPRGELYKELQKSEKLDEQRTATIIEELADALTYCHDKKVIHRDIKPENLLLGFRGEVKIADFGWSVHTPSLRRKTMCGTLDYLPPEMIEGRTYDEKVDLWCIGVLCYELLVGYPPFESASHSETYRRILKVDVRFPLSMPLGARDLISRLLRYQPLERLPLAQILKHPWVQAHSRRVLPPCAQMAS
# Fibroblast growth factor receptor 1, sequence (P11362 whole entry): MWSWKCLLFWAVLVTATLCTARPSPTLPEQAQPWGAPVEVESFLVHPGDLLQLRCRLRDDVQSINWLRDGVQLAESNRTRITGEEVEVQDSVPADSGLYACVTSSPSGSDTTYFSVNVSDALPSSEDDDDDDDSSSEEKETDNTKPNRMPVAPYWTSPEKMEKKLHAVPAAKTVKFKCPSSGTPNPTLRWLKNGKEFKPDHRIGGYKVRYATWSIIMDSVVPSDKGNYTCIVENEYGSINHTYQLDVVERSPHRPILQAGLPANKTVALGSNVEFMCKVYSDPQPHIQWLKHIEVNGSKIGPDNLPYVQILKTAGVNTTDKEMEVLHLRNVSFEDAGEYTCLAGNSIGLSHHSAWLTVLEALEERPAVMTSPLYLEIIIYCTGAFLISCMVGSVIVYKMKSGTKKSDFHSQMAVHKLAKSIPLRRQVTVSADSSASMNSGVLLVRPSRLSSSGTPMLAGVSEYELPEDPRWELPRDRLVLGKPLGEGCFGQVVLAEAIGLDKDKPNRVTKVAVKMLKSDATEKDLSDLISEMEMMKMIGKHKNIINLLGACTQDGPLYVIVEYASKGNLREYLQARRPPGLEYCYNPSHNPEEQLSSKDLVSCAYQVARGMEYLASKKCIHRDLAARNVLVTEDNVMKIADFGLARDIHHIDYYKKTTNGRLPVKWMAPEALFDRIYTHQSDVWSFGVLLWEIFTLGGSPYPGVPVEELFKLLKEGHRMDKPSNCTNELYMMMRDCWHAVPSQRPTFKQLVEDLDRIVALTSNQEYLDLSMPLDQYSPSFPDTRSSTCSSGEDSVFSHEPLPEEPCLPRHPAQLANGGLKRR
structure (smiles),measurement,setting,value
O=C1Nc2cc(Br)ccc2/C1=C1/Nc2ccccc2/C1=N\O [6BIO],Activity,MCF7 [1],75%
same,Activity,[2],80%
same,Activity,A2058,80%
COc1ccc2c(c1)/C(=C1/Nc3ccccc3/C1=N\OCC(O)CO)C(=O)N2 (stereo not drawn),IC50,[3],10.7 nM
same,IC50,[4],10.7 nM
same,IC50,[5],10.7 nM
same,IC50,[6],10.7 nM
same,IC50,[7],10.7 nM
same,IC50,[8],10.7 nM
same,IC50,PANC-1,760 nM
same,IC50,MIA PaCa-2,760 nM
same,IC50,BXPC-3,760 nM
CC(=O)O/N=C1/C(=C2/C(=O)Nc3c(Br)cccc32)Nc2ccccc21,IC50,Aurora kinase A,20000 nM
same,IC50,Aurora kinase B,8000 nM
same,IC50,Aurora kinase C,100 nM
CN1C(=O)/C(=C2\Nc3ccccc3\C2=N/O)c2ccccc21,IC50,[9],73000 nM
same,IC50,MCF7 [10],58600 nM
same,IC50,LoVo,> 100000 nM
same,IC50,LNCaP,68900 nM
same,IC50,[11],> 100000 nM
same,IC50,[12],> 100000 nM
O=C1Nc2ccc(NC(=O)C(c3ccccc3)c3ccccc3)cc2/C1=C1/Nc2ccccc2/C1=N\O,IC50,K562 [13],2910 nM
same,IC50,OCI-AML2 [14],2420 nM
same,IC50,K562 [15],3650 nM
same,IC50,OCI-AML2 [16],2360 nM
O=C1Nc2ccc(C(=O)N3CCCCC3)cc2/C1=C1/Nc2ccccc2/C1=N\O,IC50,HT-29,4220 nM
same,IC50,[17],> 10000 nM
same,IC50,[18],> 10000 nM
same,IC50,[19],> 10000 nM
O=C1Nc2ccccc2/C1=C1/Nc2ccccc2/C1=N\O,IC50,CDK2/Cyclin A2 [20],440 nM
same,IC50,[21],250 nM
same,IC50,[22],3330 nM
same,IC50,LXFL 529,3000 nM
same,IC50,MCF7 [23],3300 nM
same,IC50,CDK2/Cyclin A2 [24],590 nM
same,IC50,[25],300 nM
same,IC50,[26],380 nM
same,IC50,[27],4400 nM
same,IC50,HuCCT-1,5000 nM
same,IC50,[28],4700 nM
same,IC50,[29],79 nM
same,IC50,[30],101 nM
same,IC50,MV4-11,30 nM
same,GI50,HL-60,36600 nM
same,IC50,Danio rerio,310 nM
same,IC50,HUVEC,360 nM
same,IC50,[31],101 nM
same,IC50,[32],2500 nM
same,IC50,[33],1480 nM
same,Activity,A549 [34],83.5%
same,Activity,A549 [35],66.7%
O=C1Nc2ccccc2/C1=C1/Nc2ccccc2/C1=N\OCC1CO1 (stereo not drawn),IC50,IMR-32,160 nM
same,IC50,SK-N-SH,70 nM
